Values quoted from earlier work in patent publication US8680293B2, “Substituted CC-1065 analogs and their conjugates” (Syntarga B.V., priority 2007, dated 2014).

Details: reason it could not be used in the clinic

COc1c(O)c2c(c3cc(C(=O)N4CCc5c4c(O)c(OC)c4[nH]c(C(=O)N6CC7CC78C6=CC(=O)c6[nH]cc(C)c68)cc54)[nH]c13)CCN2C(N)=O (stereo not shown) [CC-1065]
hepatotoxicity: serious delayed hepatotoxicity
